Patent US5317095A, “Alpha-D-glycosyl kasugamycin, its preparation, and antibacterial agent containing the same” (Hayashibara Biochemical Laboratories, Inc., priority 1992, dated 1994)
Read-outs that look alike come from different tables or passages of the source.

Assays:
[1] = pH Stability test of α-D-glucosyl kasugamycin; assay type: physicochemical; details: 120° C. for 1 hour; for remaining at 1 h: buffer, read-out: Residue (%); for remaining at 1 h / Residue (%): mean, n = 5
Experimental: Fifty μl of 2.56 w/v % aqueous solution of α-D-glucosyl kasugamycin (purity: about 80%), which was prepared according to the method described in Example 3 was mixed with 450 μl of a buffer adjusted to pH 2.0, 4.0, 6.0, 8.0 or 10.0. The mixture was kept at 120° C. for 1 hour in a well-closed container. As the buffer was used 1M HCl- Sodium acetate buffer (pH 2.0 or pH 4.0), 1M acetic acid buffer (pH 6.0), 1M Tris-HCl buffer (pH 8.0) or 1M NH4 OH- NH4 Cl buffer (pH 10.0).
Each of thus obtained mixtures was cooled with a running water. Then, the mixture was diluted 5 times with 0.5M Na3 PO4 -H3 PO4 (pH 6.0). Successively, the diluted mixture subjected to HPLC under the following conditions.
As a comparison was used a sample obtained by diluting 5 times a mixture of 50 μl of 2.56 w/v % aqueous solution of α-D-glucosyl kasugamycin and 450 μl of deionized water with 0.5M Na3 PO4 -H3 PO4 (pH 6.0).
Residue was calculated on the basis of a ratio of the peak area of α-D-glucosyl kasugamycin in each treated mixture to that in the sample as a comparison.
Also, 1.0 w/v % aquous solution of kasugamycin purchased from Hokko Kagaku Kogyo Kabushiki Kaisha was treated in the same manner as described in the case of α-D-glucosyl kasugamycin. Residue in each pH condition was calculated.
Column: ODS-M (commercially avairable from Shimazu Techno Research Co., Ltd.)
Eluate: Acetonitrile/Water*=8/92 (v/v) *0.2M CH3 (CH2)5 SO3 Na (pH was not adjusted) 0.005M Na3 PO4 -H3 PO4 (pH 6.0)

[2] = Solubility in solvents; assay type: physicochemical
[3] = Stability in aqueous solution; assay type: physicochemical; details: pH in the range from 3.0 to 7.0
[4] = system: α-glucosidase derived from pig liver; experiment: Hydrolysis by α-glucosidase derived from pig liver; assay type: in vitro ADME; details: pig liver enzyme; forms 1 mole of D-glucose per 1 mole of kasugamycin
[5] = system: α-glucosidase derived from seeds of rice plant; experiment: Hydrolysis by α-glucosidase derived from seeds of rice plant; assay type: in vitro ADME; details: enzyme from seeds of rice plant; forms 1 mole of D-glucose per 1 mole of kasugamycin
[6] = system: α-glucosidase derived from microorganisms of the genus Mucor; experiment: Hydrolysis by α-glucosidase derived from microorganisms of the genus Mucor; assay type: in vitro ADME; details: enzyme from genus Mucor; forms 1 mole of D-glucose per 1 mole of kasugamycin
[7] = system: dd mice; experiment: Acute toxicity; assay type: in vivo; details: peritoneally administered; 7 week-old dd mice; highest dose 3,000 mg per kg body weight
Description: The α-D-glucosyl kasugamycin was peritoneally administered to 7 week-old dd mice for acute toxicity test.

Compound: C[C@H]1O[C@H](O[C@H]2[C@H](O)[C@@H](O)[C@@H](O)[C@H](O)[C@@H]2O)[C@@H](N)C[C@@H]1NC(=N)C(=O)O [Kasugamycin, kasugamycin]
- remaining at 1 h ([1]; pH 2.0): 76%
- remaining at 1 h ([1]; pH 4.0): 72.1%
- remaining at 1 h ([1]; pH 6.0): 26.8%
- remaining at 1 h ([1]; pH 8.0): 9.5%
- Residue (%) ([1]; pH 10.0): trace

Compound: α-D-glucosyl kasugamycin
- Solubility in 0.1N hydrochloric acid ([2]; 0.1N hydrochloric acid): readily soluble
- Solubility in 0.1N sodium hydroxide ([2]; 0.1N sodium hydroxide): readily soluble
- Solubility in acetic acid ([2]; acetic acid): readily soluble
- Solubility in chloroform ([2]; chloroform): insoluble
- Solubility in ethanol ([2]; ethanol): substantially insoluble
- Solubility in ethyl acetate ([2]; ethyl acetate): insoluble
- Solubility in methanol ([2]; methanol): substantially insoluble
- Solubility in water ([2]; water): readily soluble
- solubility in water relative to that of kasugamycin ([2]; water, room temperature, vs kasugamycin): not less than fivefold
- Stability in an aqueous solution [3]: excellently stable
- Hydrolysis by α-glucosidase [4]: readily hydrolyed
- Hydrolysis by α-glucosidase [5]: readily hydrolyed
- Hydrolysis by α-glucosidase [6]: readily hydrolyed
- deaths (acute toxicity) [7]: not observed any deaths
- Residue (%) ([1]; pH 2.0): 76.2%
- Residue (%) ([1]; pH 4.0): 75.2%
- Residue (%) ([1]; pH 6.0): 26.9%
- times stabler than kasugamycin ([1]; pH 8.0, 17.6/9.5): approximately 1.85 times
- Residue (%) ([1]; pH 8.0): 17.6%
- Residue (%) ([1]; pH 10.0): trace
